# In US20240139211A1, “METHODS AND COMPOSITIONS FOR TREATING AMYOTROPHIC LATERAL SCLEROSIS” (Amylyx Pharmaceuticals, Inc., priority 2022, published 2024):
# Several values for one entry are separate records, joined by “and”; a condition that tells them apart may be missing. Equal values may be shown once.
# Experiments:
# [1] = target: T1, OCT2 (Homo sapiens, UniProt O15244); experiment: in vitro
# T1 sequence (O15244 1-555): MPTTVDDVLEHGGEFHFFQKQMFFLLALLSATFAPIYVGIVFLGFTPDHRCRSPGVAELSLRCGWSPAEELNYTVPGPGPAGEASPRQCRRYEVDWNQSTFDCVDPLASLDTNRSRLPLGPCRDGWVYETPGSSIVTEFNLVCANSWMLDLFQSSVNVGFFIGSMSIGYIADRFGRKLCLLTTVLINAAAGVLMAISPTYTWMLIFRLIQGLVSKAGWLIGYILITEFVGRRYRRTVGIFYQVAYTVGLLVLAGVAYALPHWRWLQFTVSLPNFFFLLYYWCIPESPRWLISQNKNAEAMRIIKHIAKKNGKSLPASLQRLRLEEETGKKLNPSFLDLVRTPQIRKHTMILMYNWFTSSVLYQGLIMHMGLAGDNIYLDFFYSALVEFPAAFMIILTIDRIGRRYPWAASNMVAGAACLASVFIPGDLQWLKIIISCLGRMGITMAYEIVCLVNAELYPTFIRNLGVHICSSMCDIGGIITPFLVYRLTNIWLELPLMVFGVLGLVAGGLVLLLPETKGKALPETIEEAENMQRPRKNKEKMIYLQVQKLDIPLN
# [2] = target: T2, OAT3 (Homo sapiens, UniProt Q8TCC7); experiment: in vitro
# T2 sequence (Q8TCC7 1-542): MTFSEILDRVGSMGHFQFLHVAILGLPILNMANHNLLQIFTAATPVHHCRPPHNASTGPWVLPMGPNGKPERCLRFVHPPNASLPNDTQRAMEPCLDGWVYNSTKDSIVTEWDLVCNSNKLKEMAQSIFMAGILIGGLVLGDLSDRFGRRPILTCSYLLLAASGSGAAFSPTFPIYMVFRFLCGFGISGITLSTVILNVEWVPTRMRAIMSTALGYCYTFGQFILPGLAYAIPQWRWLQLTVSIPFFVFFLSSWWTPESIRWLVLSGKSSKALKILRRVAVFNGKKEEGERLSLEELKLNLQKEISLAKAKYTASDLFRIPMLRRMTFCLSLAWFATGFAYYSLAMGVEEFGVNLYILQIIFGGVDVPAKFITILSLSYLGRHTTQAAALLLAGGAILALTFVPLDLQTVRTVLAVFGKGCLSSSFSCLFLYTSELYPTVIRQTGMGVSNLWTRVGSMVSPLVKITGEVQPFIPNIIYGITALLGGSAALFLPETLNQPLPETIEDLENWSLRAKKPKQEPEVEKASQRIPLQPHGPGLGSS
# [3] = target: OATP1B3 (Homo sapiens, UniProt Q9NPD5); experiment: in vitro
# Sequence of OATP1B3 (Q9NPD5 whole entry): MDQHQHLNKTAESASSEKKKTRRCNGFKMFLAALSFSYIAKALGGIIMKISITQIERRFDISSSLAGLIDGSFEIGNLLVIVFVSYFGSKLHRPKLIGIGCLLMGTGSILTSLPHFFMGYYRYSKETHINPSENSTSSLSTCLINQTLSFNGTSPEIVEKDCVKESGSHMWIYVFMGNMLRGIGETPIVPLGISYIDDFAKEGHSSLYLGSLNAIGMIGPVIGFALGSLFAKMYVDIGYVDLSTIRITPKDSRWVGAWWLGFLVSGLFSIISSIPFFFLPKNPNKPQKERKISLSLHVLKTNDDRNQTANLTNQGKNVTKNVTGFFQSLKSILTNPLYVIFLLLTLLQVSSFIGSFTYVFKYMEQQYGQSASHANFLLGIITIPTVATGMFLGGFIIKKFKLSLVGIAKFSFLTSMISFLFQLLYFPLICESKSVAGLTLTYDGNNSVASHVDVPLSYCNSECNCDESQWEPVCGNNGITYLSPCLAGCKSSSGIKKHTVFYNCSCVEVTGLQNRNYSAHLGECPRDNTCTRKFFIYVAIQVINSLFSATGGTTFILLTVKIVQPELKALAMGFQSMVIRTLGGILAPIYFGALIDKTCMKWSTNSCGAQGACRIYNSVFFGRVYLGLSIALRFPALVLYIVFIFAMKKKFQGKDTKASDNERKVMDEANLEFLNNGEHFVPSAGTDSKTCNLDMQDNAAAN
# [4] = tested on: CYP1A2; experiment: CYP1A2 enzyme activity induction in hepatocyte cultures
# [5] = tested on: CYP3A4/5; experiment: CYP3A4/5 enzyme activity induction in hepatocyte cultures
# [6] = target: T3, hrCYP2B6 (Homo sapiens, UniProt P20813); experiment: CYP reaction phenotyping with hrCYP2B6 (% remaining); format: in vitro ADME; conditions: for % Remaining of TA: hrCYP2B6 20 pmol CYP/mL, 5 μM TA, PB and TUDCA co-incubated
# T3 sequence (P20813 1-491): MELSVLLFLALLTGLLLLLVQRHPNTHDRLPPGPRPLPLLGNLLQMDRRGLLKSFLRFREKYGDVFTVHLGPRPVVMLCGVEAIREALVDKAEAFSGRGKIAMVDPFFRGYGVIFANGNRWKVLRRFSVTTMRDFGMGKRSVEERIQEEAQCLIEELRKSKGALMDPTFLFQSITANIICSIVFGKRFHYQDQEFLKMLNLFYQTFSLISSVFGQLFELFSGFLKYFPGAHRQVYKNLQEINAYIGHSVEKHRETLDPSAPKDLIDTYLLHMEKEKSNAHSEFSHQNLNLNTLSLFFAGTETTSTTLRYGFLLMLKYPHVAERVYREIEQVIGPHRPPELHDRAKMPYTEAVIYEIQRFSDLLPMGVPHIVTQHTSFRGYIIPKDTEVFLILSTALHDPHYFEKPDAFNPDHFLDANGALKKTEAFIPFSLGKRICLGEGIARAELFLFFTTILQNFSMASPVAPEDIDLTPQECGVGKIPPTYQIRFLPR
# [7] = target: hrCYP2C9 (Homo sapiens, UniProt P11712); experiment: CYP reaction phenotyping with hrCYP2C9 (% remaining); format: in vitro ADME; conditions: for % Remaining of TA: hrCYP2C9 20 pmol CYP/mL, 5 μM TA, PB and TUDCA co-incubated
# Sequence of hrCYP2C9 (P11712 whole entry): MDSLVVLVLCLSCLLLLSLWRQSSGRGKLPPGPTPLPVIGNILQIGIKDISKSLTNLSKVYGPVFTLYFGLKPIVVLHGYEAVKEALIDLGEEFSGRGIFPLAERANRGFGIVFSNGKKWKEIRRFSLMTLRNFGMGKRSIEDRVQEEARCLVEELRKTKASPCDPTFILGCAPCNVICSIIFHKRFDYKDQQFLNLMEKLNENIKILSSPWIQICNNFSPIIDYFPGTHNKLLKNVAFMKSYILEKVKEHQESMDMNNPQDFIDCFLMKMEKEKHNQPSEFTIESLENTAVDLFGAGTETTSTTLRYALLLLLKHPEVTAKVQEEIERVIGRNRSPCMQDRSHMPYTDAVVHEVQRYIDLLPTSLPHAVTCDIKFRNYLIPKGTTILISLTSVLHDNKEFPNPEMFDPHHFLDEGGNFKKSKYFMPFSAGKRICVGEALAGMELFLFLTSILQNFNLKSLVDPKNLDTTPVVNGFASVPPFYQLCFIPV
# [8] = male, CD (Sprague-Dawley) IGS, rat, in vivo
# [9] = in vivo; conditions: male, CD (Sprague-Dawley) IGS, rat, po, 840 mg/kg
# [10] = Solubility assessment in HBSSg_7.4 and HBSSg_8.5; conditions: for Measured Concentration / Percent of the Nominal Concentration: replicates 1-3
# [11] = CYP reaction phenotyping, CYP control (negative control without CYP enzymes), % remaining; format: in vitro ADME; conditions: CYP Control 0.1 mg protein/mL, 5 μM TA, PB and TUDCA co-incubated
# Method: The percent remaining of TA was calculated using the following equation: […]
# [12] = tested on: human plasma protein; experiment: Human plasma protein binding; format: in vitro ADME
# [13] = target: MATE2K (Homo sapiens, UniProt Q86VL8); experiment: MATE2K inhibition, metformin uptake in transfected HEK cells; conditions: read-out: Estimated IC50 toward MATE2K; TUDCA and PB present simultaneously
# Sequence of MATE2K (Q86VL8 1-566 isoform Q86VL8-3): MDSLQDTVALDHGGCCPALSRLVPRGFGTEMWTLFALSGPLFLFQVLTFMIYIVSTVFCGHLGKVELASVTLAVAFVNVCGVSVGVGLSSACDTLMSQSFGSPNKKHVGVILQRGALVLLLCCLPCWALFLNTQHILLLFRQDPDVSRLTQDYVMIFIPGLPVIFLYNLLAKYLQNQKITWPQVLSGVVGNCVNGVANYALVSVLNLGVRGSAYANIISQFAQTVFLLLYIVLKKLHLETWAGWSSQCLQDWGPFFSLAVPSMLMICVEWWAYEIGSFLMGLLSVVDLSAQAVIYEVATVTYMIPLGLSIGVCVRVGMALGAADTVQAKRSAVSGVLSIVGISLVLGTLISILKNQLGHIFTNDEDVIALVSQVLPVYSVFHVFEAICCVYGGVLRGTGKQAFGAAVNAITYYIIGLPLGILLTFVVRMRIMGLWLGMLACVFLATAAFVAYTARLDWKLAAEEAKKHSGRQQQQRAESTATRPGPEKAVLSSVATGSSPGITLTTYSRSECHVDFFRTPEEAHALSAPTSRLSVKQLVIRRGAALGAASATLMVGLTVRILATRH
# [14] = HBSSg_7.4, target 8005 μM TUDCA, 64447 μM PB
# [15] = HBSSg_8.5, target 810 μM TUDCA, 73927 μM PB
compound,measurement,setting,value
"O=C(O)Cc1ccccc1 [Phenylacetic acid, phenylacetic acid]",potency estimated from few doses,[1],< 7500 µM
"C[C@H](CCC(=O)NCC(=O)O)[C@H]1CC[C@H]2[C@@H]3[C@@H](O)C[C@@H]4C[C@H](O)CC[C@]4(C)[C@H]3CC[C@]12C [Glycoursodeoxycholic acid, glycoursodeoxycholic acid]",potency estimated from few doses,[2],< 100 µM
same,potency estimated from few doses,[3],< 100 µM
same,Maximum fold induction of CYP1A2 activity,"[4]; Donor 1, 72±2 h, three concentrations",5.93 fold
same,Maximum fold induction of CYP1A2 activity,[4]; Donor 2,3.08 fold
same,Maximum fold induction of CYP1A2 activity,[4]; Donor 3,9.43 fold
same,Maximum fold induction of CYP3A4/5 activity,[5]; Donor 1,1.34 fold
same,Maximum fold induction of CYP3A4/5 activity,[5]; Donor 2,1.98 fold
same,Maximum fold induction of CYP3A4/5 activity,[5]; Donor 3,2.70 fold
"O=C(O)CCCc1ccccc1 [PB, sodium phenylbutyrate]",% remaining after 60 minutes,"[6]; human, 1 h, 5 µM, pH 7.4",greater than 90%
same,% remaining after 60 minutes,"[7]; human, 1 h, 5 µM, pH 7.4",greater than 90%
same,Time through which plasma concentrations remained quantifiable,[8],4 h
same,Tmax,[9],15 to 30 min
same,potency estimated from few doses,[2],< 25 µM
same,Measured Concentration,[10]; [14],52000 µM and 59300 µM and 52800 µM
same,Percent of the Nominal Concentration,[10]; [14],80.7% and 92.0% and 81.9%
same,Measured Concentration,[10]; [15],62200 µM and 53200 µM and 61100 µM
same,Percent of the Nominal Concentration,[10]; [15],84.1% and 72.0% and 82.6%
tauroursodeoxycholic acid [TUDCA],% Remaining of TA,[6]; 0 min,100%
same,% Remaining of TA,[6]; 5 min,97.6%
same,% Remaining of TA,[6]; 10 min,97.0%
same,% Remaining of TA,[6]; 20 min,99.3%
same,% Remaining of TA,[6]; 30 min,99.7%
same,% Remaining of TA,[6]; 60 min,101%
same,% Remaining of TA,[7]; 0 min,100%
same,% Remaining of TA,[7]; 5 min,96.0%
same,% Remaining of TA,[7]; 10 min,98.8%
same,% Remaining of TA,[7]; 20 min,98.5%
same,% Remaining of TA,[7]; 30 min,97.8%
same,% Remaining of TA,[7]; 60 min,90.3%
same,% Remaining of TA,[11]; 0 min,100%
same,% Remaining of TA,[11]; 5 min,99.4%
same,% Remaining of TA,[11]; 10 min,97.9%
same,% Remaining of TA,[11]; 20 min,95.9%
same,% Remaining of TA,[11]; 30 min,93.7%
same,% Remaining of TA,[11]; 60 min,101%
same,Human Plasma Protein Binding (%),[12],98.5%
same,Soluble up to target concentration,"[10]; HBSSg_7.4, 37° C. overnight",≥ 8005 µM
same,Measured Concentration,[10]; [14],6710 µM and 6950 µM and 6770 µM
same,Percent of the Nominal Concentration,[10]; [14],83.8% and 86.8% and 84.6%
same,Soluble up to target concentration,"[10]; HBSSg_8.5, 37° C. overnight",≥ 810 µM
same,Measured Concentration,[10]; [15],719 μM and 704 μM (2×)
same,Percent of the Nominal Concentration,[10]; [15],88.8% and 86.9% (2×)
same,IC50,[13],> 810 µM
